Assay results from publication PMC9516332 (Frontiers in Oncology, 2022).
pIC50: −log10 of the molar value. Where two headings read alike, the source gives them in different places.

Tests used:
[1] = target: T1, panel of 255 wild-type kinases (Homo sapiens, UniProt Q9BZL6); experiment: Kinase panel profiling at 1 µmol/L (MSA or IMAP), percentage inhibition; format: biochemical; conditions: kinase PKD2; 1 µmol/L single concentration; read-out: %-inhibition at 1 µmol/L, PKD2
T1 sequence (Q9BZL6 1-878): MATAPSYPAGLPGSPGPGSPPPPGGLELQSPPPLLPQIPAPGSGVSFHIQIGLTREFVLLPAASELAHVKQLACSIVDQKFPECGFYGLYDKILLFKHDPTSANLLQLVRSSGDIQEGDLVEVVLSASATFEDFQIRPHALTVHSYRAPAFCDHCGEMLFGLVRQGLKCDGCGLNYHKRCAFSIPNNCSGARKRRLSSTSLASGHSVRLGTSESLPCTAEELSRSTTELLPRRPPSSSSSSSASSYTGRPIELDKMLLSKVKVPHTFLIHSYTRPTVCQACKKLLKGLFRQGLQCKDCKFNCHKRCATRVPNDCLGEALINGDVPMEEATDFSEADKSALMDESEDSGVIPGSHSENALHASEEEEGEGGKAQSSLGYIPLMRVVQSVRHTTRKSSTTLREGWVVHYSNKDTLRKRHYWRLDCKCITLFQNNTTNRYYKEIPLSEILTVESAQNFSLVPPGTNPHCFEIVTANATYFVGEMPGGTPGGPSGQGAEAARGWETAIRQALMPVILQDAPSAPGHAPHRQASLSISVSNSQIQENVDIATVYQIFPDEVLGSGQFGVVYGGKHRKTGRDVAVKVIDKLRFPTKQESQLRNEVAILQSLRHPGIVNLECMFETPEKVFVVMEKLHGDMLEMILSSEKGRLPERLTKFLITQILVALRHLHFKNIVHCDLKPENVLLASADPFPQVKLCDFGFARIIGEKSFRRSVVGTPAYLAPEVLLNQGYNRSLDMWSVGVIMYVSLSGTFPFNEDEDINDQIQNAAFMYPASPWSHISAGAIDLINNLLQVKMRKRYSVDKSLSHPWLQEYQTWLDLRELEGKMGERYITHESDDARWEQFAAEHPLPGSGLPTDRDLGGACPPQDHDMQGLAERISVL

134 cancer cell lines = experiment: Cell viability assay (ATPlite, 72 hours), IC50 on cancer cell line panel

CO[C@]1(C(=O)N[C@@H](C)c2ccc(-n3cc(F)cn3)nc2)CC[C@H](c2nc(C)cc(Nc3cc(C)[nH]n3)n2)CC1 [pralsetinib]
inhibition at 1 µM [1]: -9% | pIC50 (134 cancer cell lines; HEC-6, read-out: IC50 in cell proliferation assay, HEC-6 cell line (EGFR p.A289V)): 4.77 | pIC50 (134 cancer cell lines; Homo sapiens, 769-P, read-out: IC50 in cell proliferation assay, cell line 769-P): 5.50 | pIC50 (134 cancer cell lines; Homo sapiens, 786-0, read-out: IC50 in cell proliferation assay, cell line 786-O): 5.40 | pIC50 (134 cancer cell lines; Homo sapiens, A 172, read-out: IC50 in cell proliferation assay, cell line A-172): 6.12 | pIC50 (134 cancer cell lines; Homo sapiens, A204, read-out: IC50 in cell proliferation assay, cell line A-204): 6.17 | pIC50 (134 cancer cell lines; Homo sapiens, A498, read-out: IC50 in cell proliferation assay, cell line A-498): 5.05 | pIC50 (134 cancer cell lines; Homo sapiens, A549, read-out: IC50 in cell proliferation assay, cell line A-549): 5.09 | pIC50 (134 cancer cell lines; Homo sapiens, A704, read-out: IC50 in cell proliferation assay, cell line A-704): 5.60 | pIC50 (134 cancer cell lines; Homo sapiens, A-375, read-out: IC50 in cell proliferation assay, cell line A-375 (BRAF p.V600E)): 4.92 | pIC50 (134 cancer cell lines; Homo sapiens, A-427, read-out: IC50 in cell proliferation assay, cell line A-427): 5.96 | pIC50 (134 cancer cell lines; Homo sapiens, ACHN, read-out: IC50 in cell proliferation assay, cell line ACHN): 5.68 | pIC50 (134 cancer cell lines; Homo sapiens, AN3-CA, read-out: IC50 in cell proliferation assay, cell line AN3-CA (FGFR2 p.N549K)): 6.05 | pIC50 (134 cancer cell lines; Homo sapiens, ASPC1, read-out: IC50 in cell proliferation assay, cell line AsPC-1): 4.59 | pIC50 (134 cancer cell lines; Homo sapiens, AU565, read-out: IC50 in cell proliferation assay, cell line AU565 (ERBB2 amplification)): 5.05 | pIC50 (134 cancer cell lines; Homo sapiens, BT-20, read-out: IC50 in cell proliferation assay, cell line BT-20): 4.90 | pIC50 (134 cancer cell lines; Homo sapiens, BT-474, read-out: IC50 in cell proliferation assay, cell line BT-474 (ERBB2 amplification)): < 4.50 | pIC50 (134 cancer cell lines; Homo sapiens, BT-549, read-out: IC50 in cell proliferation assay, cell line BT-549): 5.71 | pIC50 (134 cancer cell lines; Homo sapiens, BXPC-3, read-out: IC50 in cell proliferation assay, cell line BxPC-3): 5.46 | pIC50 (134 cancer cell lines; Homo sapiens, C-33-A, read-out: IC50 in cell proliferation assay, cell line C-33 A): 6.01 | pIC50 (134 cancer cell lines; Homo sapiens, CAL-27, read-out: IC50 in cell proliferation assay, cell line CAL-27): 5.71 | pIC50 (134 cancer cell lines; Homo sapiens, CCF-STTG1, read-out: IC50 in cell proliferation assay, cell line CCF-STTG1): 5.24 | pIC50 (134 cancer cell lines; Homo sapiens, CCRF-CEM, read-out: IC50 in cell proliferation assay, cell line CCRF-CEM): 4.88 | pIC50 (134 cancer cell lines; Homo sapiens, COLO 205, read-out: IC50 in cell proliferation assay, cell line COLO 205 (BRAF p.V600E)): 4.89 | pIC50 (134 cancer cell lines; Homo sapiens, COLO-829, read-out: IC50 in cell proliferation assay, cell line COLO 829 (BRAF p.V600E)): 4.61 | pIC50 (134 cancer cell lines; Homo sapiens, DLD-1, read-out: IC50 in cell proliferation assay, cell line DLD-1): 5.00 | pIC50 (134 cancer cell lines; Homo sapiens, DU-4475, read-out: IC50 in cell proliferation assay, cell line DU4475 (BRAF p.V600E)): 4.93 | pIC50 (134 cancer cell lines; Homo sapiens, Daoy, read-out: IC50 in cell proliferation assay, cell line Daoy): 4.99 | pIC50 (134 cancer cell lines; Homo sapiens, DoTc2-4510, read-out: IC50 in cell proliferation assay, cell line DoTc2 4510): 5.46 | pIC50 (134 cancer cell lines; Homo sapiens, EOL1, read-out: IC50 in cell proliferation assay, cell line EoL-1 (FIP1L1-PDGFRA)): 7.80 | pIC50 (134 cancer cell lines; Homo sapiens, FaDu, read-out: IC50 in cell proliferation assay, cell line FaDu): 5.44 | pIC50 (134 cancer cell lines; Homo sapiens, G-361, read-out: IC50 in cell proliferation assay, cell line G-361 (BRAF p.V600E)): 4.75 | pIC50 (134 cancer cell lines; Homo sapiens, HCC827, read-out: IC50 in cell proliferation assay, cell line HCC827 (EGFR exon19del)): 5.52 | pIC50 (134 cancer cell lines; Homo sapiens, HCC4006, read-out: IC50 in cell proliferation assay, cell line HCC4006 (EGFR exon19del)): 5.23 | pIC50 (134 cancer cell lines; Homo sapiens, HCT-15, read-out: IC50 in cell proliferation assay, cell line HCT 15): 5.24 | pIC50 (134 cancer cell lines; Homo sapiens, HCT-116, read-out: IC50 in cell proliferation assay, cell line HCT 116): 4.99 | pIC50 (134 cancer cell lines; Homo sapiens, HEC-1, read-out: IC50 in cell proliferation assay, HEC-1 cell line): 5.64 | pIC50 (134 cancer cell lines; Homo sapiens, HEC-1B, read-out: IC50 in cell proliferation assay, HEC-1-B cell line (EGFR p.A864V)): 6.22 | pIC50 (134 cancer cell lines; Homo sapiens, HL-60, read-out: IC50 in cell proliferation assay, HL-60 cell line): 4.60 | pIC50 (134 cancer cell lines; Homo sapiens, HT, read-out: IC50 in cell proliferation assay, HT cell line): < 4.50 | pIC50 (134 cancer cell lines; Homo sapiens, HT-1080, read-out: IC50 in cell proliferation assay, HT-1080 cell line): 5.09 | pIC50 (134 cancer cell lines; Homo sapiens, Hs746T, read-out: IC50 in cell proliferation assay, Hs 746.T cell line (MET exon14skip + amplification)): 5.02 | pIC50 (134 cancer cell lines; Homo sapiens, Hs-578T, read-out: IC50 in cell proliferation assay, Hs 578T cell line): 5.94 | pIC50 (134 cancer cell lines; Homo sapiens, HuTu80, read-out: IC50 in cell proliferation assay, HuTu 80 cell line): 6.06 | pIC50 (134 cancer cell lines; Homo sapiens, J82, read-out: IC50 in cell proliferation assay, J82 cell line): 5.76 | pIC50 (134 cancer cell lines; Homo sapiens, Jurkat E6.1, read-out: IC50 in cell proliferation assay, Jurkat E6.1 cell line): 4.94 | pIC50 (134 cancer cell lines; Homo sapiens, K562, read-out: IC50 in cell proliferation assay, K-562 cell line): 5.25 | pIC50 (134 cancer cell lines; Homo sapiens, KATO III, read-out: IC50 in cell proliferation assay, KATO III cell line (FGFR2 amplification)): 6.56 | pIC50 (134 cancer cell lines; Homo sapiens, KG-1, read-out: IC50 in cell proliferation assay, KG-1 cell line (FGFR1OP2-FGFR1)): 6.88 | pIC50 (134 cancer cell lines; Homo sapiens, KLE, read-out: IC50 in cell proliferation assay, KLE cell line): 5.74 | pIC50 (134 cancer cell lines; Homo sapiens, KMS-11, read-out: IC50 in cell proliferation assay, KMS-11 cell line (FGFR3 p.Y373C)): 6.40 | pIC50 (134 cancer cell lines; Homo sapiens, KU812, read-out: IC50 in cell proliferation assay, Ku812 cell line): 5.43 | pIC50 (134 cancer cell lines; Homo sapiens, Kasumi 1, read-out: IC50 in cell proliferation assay, Kasumi-1 cell line (KIT p.N822K)): 6.74 | pIC50 (134 cancer cell lines; Homo sapiens, LC-2-ad, read-out: IC50 in cell proliferation assay, LC-2/ad cell line (CCDC6-RET)): 7.27 | pIC50 (134 cancer cell lines; Homo sapiens, LNCaP-Clone-FGC, read-out: IC50 in cell proliferation assay, LNCaP clone FGC cell line): < 4.50 | pIC50 (134 cancer cell lines; Homo sapiens, LS174T, read-out: IC50 in cell proliferation assay, LS174T cell line): 5.64 | pIC50 (134 cancer cell lines; Homo sapiens, LS-411N, read-out: IC50 in cell proliferation assay, LS411N cell line (BRAF p.V600E)): 4.59 | pIC50 (134 cancer cell lines; Homo sapiens, LoVo, read-out: IC50 in cell proliferation assay, LoVo cell line): 5.82 | pIC50 (134 cancer cell lines; Homo sapiens, MCF7, read-out: IC50 in cell proliferation assay, MCF-7 cell line): < 4.50 | pIC50 (134 cancer cell lines; Homo sapiens, MDA-MB-231, read-out: IC50 in cell proliferation assay, MDA-MB-231 cell line): 6.26 | pIC50 (134 cancer cell lines; Homo sapiens, MDA-MB-453, read-out: IC50 in cell proliferation assay, MDA-MB-453 cell line): < 4.50 | pIC50 (134 cancer cell lines; Homo sapiens, MDA-MB-468, read-out: IC50 in cell proliferation assay, MDA-MB-468 cell line): 5.07 | pIC50 (134 cancer cell lines; Homo sapiens, MG-63, read-out: IC50 in cell proliferation assay, MG-63 cell line): 5.73 | pIC50 (134 cancer cell lines; Homo sapiens, MIA PaCa-2, read-out: IC50 in cell proliferation assay, MIA PaCa-2 cell line): 5.81 | pIC50 (134 cancer cell lines; Homo sapiens, MKN-45, read-out: IC50 in cell proliferation assay, MKN45 cell line (MET amplification)): < 4.50 | pIC50 (134 cancer cell lines; Homo sapiens, MOLM-13, read-out: IC50 in cell proliferation assay, MOLM-13 cell line (FLT3 ITD)): 7.48 | pIC50 (134 cancer cell lines; Homo sapiens, MOLT-4, read-out: IC50 in cell proliferation assay, MOLT-4 cell line): 5.03
